Reference: patent US20210008229A1, “TARGETED PHOTOACOUSTIC AGENTS AND USES THEREOF” (McMaster University, priority 2019, published 2021)
≈ marks a conversion by molar mass, not a printed value.

Key:
[1] = tested on: sites of high calcium accretion; test: in vivo photoacoustic imaging of the knee joint (calcium accretion); design: species or system Balb/c mice; settings: for photoacoustic signal in the knee (or shoulder) joints: in vivo, 1 hour post-injection
Protocol: The white arrows indicate the knee joint and light grey arrows indicate blood vessels.
Photoacoustic imaging was performed using Vevo LAZR-X (FUJIFILM VisualSonics Inc., Toronto, ON, Canada) Imaging system equipped with a 680-970 nm laser. Mice were anaesthetized with isofluorane and set up on a platform that monitored the respiration rate and the heart rate of the mouse. The hair on the hindlimb was removed while the mouse was anaesthetized. A 30-MHz, linear array ultrasound transducer with integrated fiber optic light delivery (LZ-400 and MX-400, FUJIFILM VisualSonics, Inc.) was positioned laterally overtop the hindlimb knee joint. The integrated fiber bundle delivered 15 to 20 mJ/cm^2 of light to the hindlimb of the mouse.
There are a number of TCO-derived molecules, including antibodies and small molecules, that are available for use as targeting vectors.^16,17,18,19 For a proof of concept study, compound 5 was combined with a TCO-derived bisphosphonate (TCO-BP (6)). TCO-BP has been used to target radiolabeled tetrazines to sites of high calcium accretion. Conveniently, the compound allows testing to be performed in inexpensive healthy mouse models since tetrazine derivatives coupled to TCO-BP should localize to elbow and knee joints where there is elevated turnover of calcium.^16,20,21 Compound 7 was prepared by mixing compounds 5 and 6 at room temperature for 10 min in quantitative yield; highlighting the ease with which new photoacoustic imaging agents can be prepared using this approach.
For in vivo studies, a group of Balb/c mice were administered the parent tetrazine 5 and a second group received the bisphosphonate derivative 7.

[2] = target: T1, bovine serum albumin (BSA) (Bos taurus, UniProt P02769); test: preliminary albumin binding study (absorbance and emission with BSA); settings: absorbance and emission of 5 with varying concentrations of BSA
T1 construct: purchased Sigma-Aldrich
Protocol: When experiments were performed at high dye concentrations, aggregation completely quenches the fluorescence signal, which can be restored through the addition of albumin.

[3] = tested on: 143B human osteosarcoma xenografts; test: in vivo photoacoustic imaging of tumor xenografts; design: species or system BALB/c nu/nu mice; settings: 1 hour post injection versus background before injection; 200 μL of 5 (1 mg)
Protocol: Red in color images=oxyhemoglobin, Blue in color images=deoxyhemoglobin and Green in color images=the dye-tetrazine conjugate according to an embodiment of the present application. The dashed white lines outline the tumor.
Female BALB/c […] mice (Charles River Laboratories, Kingston, N.Y.) at 4-6 weeks of age were sterile housed and maintained at 24° C. with a 12 h light/dark cycle and were provided autoclaved food and water ad libitum. All procedures were conducted according to the guidelines of the Committee for Research and Ethical Issues of the International Association for the Study of Pain, and guidelines established by the Canadian Council on Animal Care and the McMaster University Animal Research Ethics Board. Female 10-11 week old BALB/c nu/nu mice (Charles River Laboratories, Kingston, N.Y.) were injected with 2.0×10^6 143 B cells in Matrigel:Dulbecco's phosphate-buffered saline (DPBS) (1:1) subcutaneously into the right flank. Photoacoustic studies were performed 10 days following tumor inoculation.
Photoacoustic imaging was performed using Vevo LAZR-X (FUJIFILM VisualSonics Inc., Toronto, ON, Canada) Imaging system equipped with a 680-970 nm laser. Mice were anaesthetized with isofluorane and set up on a platform that monitored the respiration rate and the heart rate of the mouse. The hair on the hindlimb was removed while the mouse was anaesthetized. […]

[4] = stability of 5 in plasma (HPLC); type: in vitro ADME; settings: murine plasma at 37° C.
Protocol: Compound 5 was prepared from the commercially available dye IR-783, which is known to produce a strong photoacoustic signal, in only two steps. The first step involved the preparation of the IR-783-aldehyde 3 which was done successfully using a Suzuki-Miyaura coupling between 1 and 2 in the presence of Pd(PPh3)4 and Cs2CO3. A significant number of different catalysts, bases and reaction conditions were screened to maximize the yield of 3 (96%). The aldehyde was subsequently coupled to tetrazine 4, prepared using a literature procedure,^14 to form the hydrazone 5. Following characterization by nuclear magnetic resonance (NMR) spectroscopy, high resolution mass spectrometry (HRMS) and high performance liquid chromatography (HPLC), the stability of 5 in plasma was evaluated.

[5] = solubility / formulation concentration in 10% ethanol in saline; type: physicochemical; settings: aqueous with cosolvent or surfactant or cyclodextrin, read-out: concentration formulated (soluble)
Protocol: Prior to developing and testing a targeted derivative, in vivo imaging studies were performed with 5 and 143B human osteosarcoma xenografts. Compound 5 was soluble in 10% ethanol in saline and formulated at a concentration of 5 mg mL^−1, which conveniently is higher than what can be achieved for ICG (1 mg mL^−1). Prior to injection, tumors were imaged in order to separate the signals arising from oxygenated and deoxygenated hemoglobin, and 5, which are shown in red, blue and green respectively in color images of FIG. 8. Following administration of 200 μL of 5 (1 mg), signal arising from 5 was clearly visible in the tumor as early as 1 hour post-injection (FIG. 8, upper right image). Mice were sacrificed and the tumors were imaged ex vivo (FIG. 8, lower left image) where uptake of the dye within the tumor was clearly evident.

[6] = biodistribution study (gamma counting of tissues and fluids); type: in vivo, BALB/c mice
Protocol: FIG. 11 is a plot showing biodistribution data for selected fluids and tissues for TCO-BP labeled with ^99mTc and coupled to a dye-tetrazine conjugate according to an embodiment of the present application. Experiments were performed using Balb/c mice (n=3 per time point) and tissues and fluids were collected at 1, 3, 6, and 24 h post administration. Data are expressed as the mean percent injected dose per gram (% ID g−1)±SEM.
(upper plot) and fluorescence spectra and intensity data for blood samples (n=3 for each time point) following the administration of TCO-BP labeled with ^99mTc and coupled to a dye-tetrazine conjugate according to an embodiment of the present application taken at 1, 3, 6, and 24 h p.i. (lower plot).
Biodistribution studies were performed using female BALB/c mice (Charles River, Kingston, N.Y.) at the indicated time points. The mice were administered the agents via tail vein injection with the final volume not exceeding 200 μL. A 5 mg/mL solution of compound 9 (see Scheme 2, below) in 10% ethanol in saline was administered at a dose of 20 mg/kg to all mice (approximately 518 kBq of 9). For all studies, at 1, 3, 6, or 24 h post-injection of the labeled compound, the animals were euthanized by cervical dislocation. Fluids, bone (knee and shoulder), and select tissues were collected, weighed, and counted in a PerkinElmer Wizard 1470 automatic gamma counter. Decay correction was used to normalize organ activity measurements to time of dose preparation for data calculations. Data is expressed as percent injected dose per gram tissue or fluid (% ID/g) or percent injected dose per organ (% ID/O).
Mice were administered 9 (518 kBq) and sacrificed at […] post injection where fluids, bone (knee, shoulder), and other key tissues were collected, weighed, and counted in a gamma counter. The resulting data is shown in FIG. 11 and expressed as percent injected dose per gram of tissue or fluid (% ID g^−1).

[7] = tested on: plasma proteins; test: plasma binding study; type: in vitro ADME; settings: for Pellet: activity in protein pellet; for Supernatant: activity in supernatant
From the text: FIG. 13 is a plot showing the results of a plasma binding study of TCO-BP labeled with ^99mTc and coupled to a dye-tetrazine conjugate according to an embodiment of the present application. […]

[8] = comparison value for ICG; cited from earlier work

T1 sequence (P02769 25-607): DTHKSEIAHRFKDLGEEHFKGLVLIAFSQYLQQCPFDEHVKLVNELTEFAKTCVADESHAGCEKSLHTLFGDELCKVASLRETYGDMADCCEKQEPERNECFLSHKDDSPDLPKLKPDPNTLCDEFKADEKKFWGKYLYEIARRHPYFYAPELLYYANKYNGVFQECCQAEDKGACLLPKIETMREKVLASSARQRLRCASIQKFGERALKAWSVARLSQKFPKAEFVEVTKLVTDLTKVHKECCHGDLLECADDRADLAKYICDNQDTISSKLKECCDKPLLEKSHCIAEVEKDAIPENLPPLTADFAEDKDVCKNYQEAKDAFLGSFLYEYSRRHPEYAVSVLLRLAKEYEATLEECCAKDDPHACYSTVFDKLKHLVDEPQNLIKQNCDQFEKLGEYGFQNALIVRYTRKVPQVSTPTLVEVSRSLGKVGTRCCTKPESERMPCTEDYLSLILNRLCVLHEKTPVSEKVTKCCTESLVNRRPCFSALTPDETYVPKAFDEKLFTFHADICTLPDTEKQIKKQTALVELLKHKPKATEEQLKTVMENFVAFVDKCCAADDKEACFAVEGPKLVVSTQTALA

With CC1(C)C(/C=C/C2=C(c3ccc(/C=N/Nc4ccc(C(=O)NCc5ccc(-c6nncnn6)cc5)cn4)cc3)C(=C/C=C3\N(CCCCS(=O)(=O)[O-])c4ccccc4C3(C)C)/CCC2)=[N+](CCCCS(=O)(=O)O)c2ccccc21 [Compound 5] the “photoacoustic signal in the knee (or shoulder) joints” value [1] was “did not show any significant signal”, the albumin binding [2] was “dye binding to a hydrophobic binding site of albumin” and the “increase in signal intensity in the tumor” value [3] was 2.3 ×. For the same compound, the “reactivity of the tetrazine towards TCO-derivatives after plasma incubation” value ([4]; 24 h) was “remained reactive towards trans-cyclooctene (TCO)-derivatives”, the “stability in plasma (degradation)” value ([4]; out to 24 h) was “no signs of degradation” and the solubility [5] was 5000 µg/mL (≈ 4.54 mM).
In the case of CC1(C)C(/C=C/C2=C(c3ccc(/C=N/Nc4ccc(C(=O)NCc5ccc(C6=NNC=C7CCC(OC(=O)NCCCC(O)(P(=O)(O)O)P(=O)(O)O)CCCC76)cc5)cn4)cc3)C(=C/C=C3\N(CCCCS(=O)(=O)[O-])c4ccccc4C3(C)C)/CCC2)=[N+](CCCCS(=O)(=O)O)c2ccccc21 (centres unmarked) [Compound 7], the “uptake in the leg, images ex vivo” value ([1]; ex vivo leg after 1 hour post-injection imaging) was “intense uptake” and the “photoacoustic signal in the knee (or shoulder) joints” value [1] was “significant signal”.
In the case of CC1(C)C(/C=C/C2=C(c3ccc(/C=N/Nc4ccc(C(=O)NCc5ccc(C6=NNC=C7CCC(OC(=O)NCCCC8(O)P(=O)(O)[O][Tc]9([OH])([OH])([O]P(=O)(O)C(O)(CCCNC(=O)OC%10CC/C=C/CCC%10)P(=O)(O)[O]9)[O]P8(=O)O)CCCC76)cc5)cn4)cc3)C(=C/C=C3\N(CCCCS(=O)(=O)[O-])c4ccccc4C3(C)C)/CCC2)=[N+](CCCCS(=O)(=O)[O][Na])c2ccccc21 (centres unmarked) [Compound 9], the “blood level relative to [99mTc]Tc-TCO-BP alone” value ([6]; 1 h) was 20 ×, the “activity in the blood” value ([6]; 1 h post injection) was “over 15 % ID g^−1” and the “blood level relative to [99mTc]Tc-TCO-BP alone” value ([6]; 6 h) was 187 ×. It also gave a blood half-life ([6]; determined using radioactive counting) of 3.2 h, a Pellet ([7]; 0 h) of 32.79 and a Pellet ([7]; 0.5 h) of 36.10. For the same compound, the Pellet ([7]; 1 h) was 47.53, the Pellet ([7]; 2 h) was 45.29 and the Pellet ([7]; 3 h) was 47.72. It also gave a Pellet ([7]; 4 h) of 46.88, a Pellet ([7]; 6 h) of 47.83 and a Supernatant ([7]; 0 h) of 52.00. For the same compound, the Supernatant ([7]; 0.5 h) was 53.44, the Supernatant ([7]; 1 h) was 47.27 and the Supernatant ([7]; 2 h) was 49.35. For the same compound, the Supernatant ([7]; 3 h) was 46.82, the Supernatant ([7]; 4 h) was 47.42 and the Supernatant ([7]; 6 h) was 47.46. The “activity in the supernatant” value ([7]; after 1 hour) was 50% and the “activity present in the pellet containing the proteins” value ([7]; after 1 hour) was 50%.
For CC1(C)C(/C=C/C=C/C=C/C=C2\N(CCCCS(=O)(=O)O)c3ccc4ccccc4c3C2(C)C)=[N+](CCCCS(=O)(=O)[O-])c2ccc3ccccc3c21 [ICG, indocyanine green], the “concentration that can be achieved” value [8] is given as 1000 µg/mL.
